Experimental data taken from US8114862B2, “TGR5 modulators and methods of use thereof” (Intercept Pharmaceuticals, Inc., priority 2008, dated 2012).

What was measured:
[1] = tested on: Diet-Induced Obesity Mouse Model; test: Diet-induced obesity mouse model (Example 9); format: in vivo
VDR = target: T1, VDR (Homo sapiens, UniProt P11473); test: VDR coactivator recruitment assay
T1 sequence (P11473 127-423 limits assumed): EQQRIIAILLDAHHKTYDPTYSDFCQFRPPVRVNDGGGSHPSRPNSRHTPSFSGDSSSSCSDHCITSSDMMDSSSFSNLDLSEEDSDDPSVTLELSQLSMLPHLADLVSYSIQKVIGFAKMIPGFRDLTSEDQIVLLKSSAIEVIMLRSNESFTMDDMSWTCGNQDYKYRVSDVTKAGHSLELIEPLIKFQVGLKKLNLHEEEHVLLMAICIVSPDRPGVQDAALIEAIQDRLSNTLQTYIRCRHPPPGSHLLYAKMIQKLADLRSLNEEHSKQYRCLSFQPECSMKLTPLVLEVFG

[2] = Bile flow in bile fistula rat after femoral infusion (Example 22); format: in vivo
PXR = PXR (Homo sapiens, UniProt O75469); test: PXR ligands competition assay (binding assay)
Chain of PXR (O75469 whole entry, species assumed): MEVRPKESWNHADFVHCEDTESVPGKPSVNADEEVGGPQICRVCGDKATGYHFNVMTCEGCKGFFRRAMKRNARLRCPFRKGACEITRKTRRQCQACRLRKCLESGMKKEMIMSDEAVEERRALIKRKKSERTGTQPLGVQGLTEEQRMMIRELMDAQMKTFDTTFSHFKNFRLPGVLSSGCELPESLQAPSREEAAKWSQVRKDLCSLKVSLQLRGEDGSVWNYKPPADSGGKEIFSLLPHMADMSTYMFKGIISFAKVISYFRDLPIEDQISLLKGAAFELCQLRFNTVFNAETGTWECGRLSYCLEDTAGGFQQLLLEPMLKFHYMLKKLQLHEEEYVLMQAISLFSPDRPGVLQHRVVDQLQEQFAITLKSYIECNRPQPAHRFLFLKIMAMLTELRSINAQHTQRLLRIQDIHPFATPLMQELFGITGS

[3] = Stability in human liver microsomes; conditions: liver microsomes
CAR = target: T2, CAR (Homo sapiens, UniProt Q14994); test: CAR coactivator recruitment (Lanthascreen); format: biochemical; conditions: read-out: CAR Activation EC50
T2 construct: purchased Invitrogen
T2 sequence (Q14994 109-352 limits assumed): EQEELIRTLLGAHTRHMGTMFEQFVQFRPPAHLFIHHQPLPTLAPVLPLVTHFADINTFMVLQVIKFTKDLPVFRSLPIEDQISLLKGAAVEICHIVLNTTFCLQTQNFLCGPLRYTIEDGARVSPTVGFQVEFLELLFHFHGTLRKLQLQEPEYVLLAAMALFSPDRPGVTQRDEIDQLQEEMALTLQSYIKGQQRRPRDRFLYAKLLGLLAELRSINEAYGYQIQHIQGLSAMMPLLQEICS
Method: CAR: Coactivator Recruitment (Lanthascreen)
Lanthascreen assay (Invitrogen) was used for nulear receptor selectivity assay. The kit uses a terbium-labeled anti-GST antibody, a fluorescein-labeled coactivator peptide, and a NR ligand-binding domain that is tagged with glutathione-S-transferase (GST) in a homogenous mix-and-read assay format. […] Following 1 hour incubation in the dark, TR-FRET measurements were made in the Envision. […] The data was analyzed using GraphPad Prism using the sigmoidal curve equation with variable slope to obtain EC50 values.

[4] = Critical micellar concentration by surface tension; format: physicochemical; conditions: […] NaCl water solution
Method: The critical micellar concentration (CMC) was determined by surface tension (ST) measurements using a maximum bubble-pressure method which give surface tension values […] by potential impurities like static methods are. The tensiometer was a […] Research Corp., Milwaukee, Wis.) equipped with two glass probes of 0.5 and 4.0 mm diameters connected to a source of nitrogen. […] The surface tension values were plotted against the logarithm of the bile salt concentration; the regression lines corresponding to the two parts of the curve (monomeric and micellar phases) were calculated using the method of least squares, and the intersection of the lines was taken as the CMC value. From the ST vs concentration curves the value of the surface tension at the CMC (equilibrium between monomers and multimers species) was also calculated giving information about the detergency power which is related to the size of the micelles with associate surface tension lowering capacity. The CMC was evaluated by surface tension measurements in non equilibrium conditions i.e. in conditions that impurities slightly affect the surface tension results (FIG. 10).

primary brown adipocytes = test: O2 consumption in primary brown adipocytes; format: cell-based, mouse; conditions: treated for 12 hr, 3 μM
intestinal bacteria = test: Metabolic stability in human stool culture (7α-dehydroxylation); format: in vitro ADME
Method: Homogenized fresh human stools (500 mg) were transferred into sterile vials to which 5 mL of sterilized chopped meat-glucose medium (Scott Lab., Fiskville, R.I.) was added. BA was then added at a final concentration of 0.05 mM. […] The samples were centrifuged at 3500 rpm for 10 min; from the supernatant the BA were isolated by C-18 solid-phase extraction and analyzed by TLC and HPLC-ES-MS/MS.
Thin-layer chromatography (TLC), utilizing silica gel 0.25 mm thickness plates (Merck, Darmstat, Germany), was employed as the first screening test. The solvent system used for the separation of conjugated BA was composed of propionic acid/isoamyl acetate/water/N-propanol (3:4:1:2, v/v/v/v; solvent I), and that of the unconjugated BA was acetic acid/carbon tetrachloride/isopropyl ether/isoamyl acetate/water/N-propanol/benzene (1:4:6:8:2:2, v/v/v/v/v/v; solvent II).

[5] = Biliary secretion and hepatic metabolism in bile fistula rat after femoral infusion (Example 22); format: in vivo; conditions: after iv administration
Method: In order to clarify this point the two pure isomers were administered by femoral infusion (i.v.) to a bile fistula rat model at a single dose of 1 μmol/min/kg bw for 1 hour and bile samples were collected for 3 hours. The effect on bile flow, on biliary secretion of the parent compound and of the main metabolite were also evaluated.
Bile samples collected at different times during the iv experiments were analyzed to determine the biliary secretions of the administered isomers and their main metabolites recovered in bile.
When samples were found out of linearity range, they were diluted and reanalyzed.
Rat bile samples were analyzed by HPLC-ESI-MS/MS using the ESI source in negative ionization mode. […] The autosampler was maintained at 7° C. […] Capillary voltage was 3.0 kV.
Calibration samples were obtained in the 0.1-20 μmol/L concentration range prepared in the mobile phase. […] Finally, calibration curves obtained for the free BA were used to estimate taurine conjugated metabolites.

[6] = Choleretic effect (bile flow) in bile fistula rat, id and iv infusion; format: in vivo; conditions: for SV0: maximum bile secretion rate: 1 (μmol/min)/kg bw over 1 h
[7] = Biliary secretion and metabolism in bile fistula rat, id and iv infusion; conditions: for Conc. / Secretion: rat bile; for fraction unbound at 4 h: rat, in vivo, 1 μmol/kg/min
[8] = duodenal infusion 75-135 min, time 90 min
[9] = duodenal infusion 75-135 min, time 120 min
[10] = duodenal infusion 75-135 min, time 150 min
[11] = duodenal infusion 75-135 min, time 180 min
[12] = duodenal infusion 75-135 min, time 210 min
[13] = duodenal infusion 75-135 min, time 240 min
[14] = duodenal infusion 75-135 min, time 270 min
[15] = duodenal infusion 75-135 min, time 300 min
[16] = femoral infusion 75-135 min, time 90 min
[17] = femoral infusion 75-135 min, time 120 min
[18] = femoral infusion 75-135 min, time 150 min
[19] = femoral infusion 75-135 min, time 180 min
[20] = femoral infusion 75-135 min, time 210 min
[21] = femoral infusion 75-135 min, time 240 min
[22] = femoral infusion 75-135 min, time 270 min

CC[C@H]1[C@@H](O)[C@@H]2[C@H](C[C@H](O)[C@]3(C)[C@@H]([C@H](C)C[C@H](C)C(=O)O)CC[C@@H]23)[C@@]2(C)CC[C@@H](O)C[C@@H]12 [Ih3e, 6α-ethyl-(23S)-methyl-3α,7α,12α trihydroxy-5β-cholan-24-oic acid]
plasma insulin levels ([1]; after 10 weeks, chow fed and high fat fed mice vs vehicle): increased
glucose levels ([1]; after 12 weeks, high fat fed mice): lower
food/water intake ([1]; high fat diet vs vehicle): slight increase
glucose tolerance ([1]; high fat fed mice): improves glucose tolerance
percentage of change in body, organ and adipose tissue weight compared to chow diet ([1]; high fat fed mice): reduced percentage change
blood glucose ([1]; high fat fed mice vs vehicle): lower
heart rate ([1]; high fat fed mice vs vehicle): lower heart rate
liver enzymes (LDH, ASAT, ALAT) ([1]; high fat fed mice vs vehicle): lower
plasma lipids (total cholesterol, HDL-chol, LDL-chol, triglycerides) ([1]; high fat fed mice vs vehicle): lower
insulin levels after a test meal ([1]; high fat fed mice vs vehicle, at about 12 minutes): peaked to higher levels
body weight gain ([1]; high fat fed mice, 16 weeks, vs vehicle): less weight gain
VDR Activation EC50 (VDR): No activity
duration of increased bile flow after the end of the infusion period ([2]; iv infusion): at least 2 hours
bile flow rate ([2]; iv infusion 1 μmol/min/kg for 1 h): significantly increased the bile flow rate
IC50 (PXR): 110 µM
half-life [3]: 32.4 h
EC50 (CAR): > 250 µM
CMC […] Na+ [4]: 1.4 mM
STCMC (surface tension at CMC) [4]: 50.1 Dyne/cm
O2 consumption after FCCP (primary brown adipocytes): significantly more pronounced
7-dehydroxylation and intermediate formation of a 7-oxo derivative (intestinal bacteria): practically abolished
side chain stability to intestinal bacteria enzymatic activities (intestinal bacteria): not modified
compound recovered unmodified (intestinal bacteria; after 24 hour incubation): more than 85%
compound unmodified (intestinal bacteria; human, 12 h, 0.05 mM): more than 95%
biliary secretion [5]: efficient
duration of increased bile flow ([6]; duodenal infusion): at least 3 hours
maximum bile flow rate ([6]; duodenal infusion 1 μmol/kg/min, 1 hour): about 120 μL/min/kg
SV0: maximum bile secretion rate ([6]; id infusion): 112 ± 12 (μL/min)/kg bw
bile flow rate ([6]; iv (femoral) infusion): significantly increased the bile flow rate
SV0: maximum bile secretion rate ([6]; iv infusion): (131 ± 11) (μL/min)/kg bw
compound secreted into the bile in its unconjugated form ([7]; after intravenous or intraduodenal infusion): more than 90%
biliary secretion ([7]; after iv administration): efficient
recovery in bile after id administration ([7]; id vs iv): slightly lower than the recovery after iv administration
Conc. [7, 8]: 7 µM
Secretion [7, 8]: 0.0003 µmol/kg/min
Conc. [7, 9]: 690 µM
Secretion [7, 9]: 0.057 µmol/kg/min
Conc. [7, 10]: 1880 µM
Secretion [7, 10]: 0.167 µmol/kg/min
Conc. [7, 11]: 1290 µM
Secretion [7, 11]: 0.150 µmol/kg/min
Conc. [7, 12]: 790 µM
Secretion [7, 12]: 0.077 µmol/kg/min
Conc. [7, 13]: 390 µM
Secretion [7, 13]: 0.033 µmol/kg/min
Conc. [7, 14]: 270 µM
Secretion [7, 14]: 0.026 µmol/kg/min
Conc. [7, 15]: 200 µM
Secretion [7, 15]: 0.015 µmol/kg/min
Conc. [7, 16]: 1900 µM
Secretion [7, 16]: 0.1 µmol/kg/min
Conc. [7, 17]: 3100 µM
Secretion [7, 17]: 0.23 µmol/kg/min
Conc. [7, 18]: 3400 µM
Secretion [7, 18]: 0.31 µmol/kg/min
Conc. [7, 19]: 2300 µM
Secretion [7, 19]: 0.2 µmol/kg/min
Conc. [7, 20]: 1060 µM
Secretion [7, 20]: 0.105 µmol/kg/min
Conc. [7, 21]: 550 µM
Secretion [7, 21]: 0.049 µmol/kg/min
Conc. [7, 22]: 270 µM
Secretion [7, 22]: 0.018 µmol/kg/min
fraction unbound at 4 h [7]: 0.94 ± 0.06
fraction unbound at 4 h ([7]; iv): 0.93
